Consider 18 compounds from patent US20120115907A1, “NOVEL COMPOUNDS AS INHIBITORS OF RENIN” (CADILA HEALTHCARE LIMITED, priority 2009, published 2012).

For this assay, the target named is T1, human recombinant renin (Homo sapiens, UniProt P00797).
T1 construct: purchased Cayman 10006270
T1 sequence (P00797 67-406): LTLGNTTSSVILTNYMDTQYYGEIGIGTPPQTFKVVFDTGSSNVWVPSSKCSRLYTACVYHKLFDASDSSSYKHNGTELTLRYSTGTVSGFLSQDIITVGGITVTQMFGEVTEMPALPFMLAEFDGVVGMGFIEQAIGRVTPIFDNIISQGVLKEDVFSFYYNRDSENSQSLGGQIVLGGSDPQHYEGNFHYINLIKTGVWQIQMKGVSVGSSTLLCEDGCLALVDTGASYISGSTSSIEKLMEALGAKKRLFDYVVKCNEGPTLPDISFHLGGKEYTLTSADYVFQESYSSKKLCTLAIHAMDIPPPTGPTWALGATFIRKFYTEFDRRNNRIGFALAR
Description: Inhibition of human recombinant renin (modified Cayman renin inhibitor screening assay, fluorescence). The assay is classed as biochemical. Conditions: for inhibition at 0.01 µM / Renin inhibition (percent inhibition of renin activity) at 0.01 μM: 0.01 μM compound; for inhibition at 0.01 µM / inhibition at 0.1 µM / Renin inhibition (percent inhibition of renin activity) at 0.01 μM / Renin inhibition (percent inhibition of renin activity) at 0.1 μM: 37° C., 30 mins, human recombinant renin; for inhibition at 0.01 µM: read-out: Renin inhibition (percent inhibition of renin activity) at 0.01 μM; for inhibition at 0.1 µM / Renin inhibition (percent inhibition of renin activity) at 0.1 μM: 0.1 μM compound; for inhibition at 0.1 µM: read-out: Renin inhibition (percent inhibition of renin activity) at 0.1 μM. The method, then: In-vitro protocol for the Inhibition of human recombinant renin by the compound of invention • Procedure: The enzymatic in vitro assay was performed in 96 well polypropylene plate (Nunc), using a modified Renin inhibitor screening assay protocol (Cayman, cat no: 10006270). The reaction system comprised assay buffer containing 50 mM Tris-HCL, pH=8.0 & 100 mM sodium chloride, human recombinant rennin (1:20 diluted with fixed activity), synthetic renin substrates (Cayman, cat no: 10006906) (14.4 μM) and different concentrations of renin inhibitors in DMSO in a total reaction system of 100 μl. The entire reaction mixture were incubated at 37° C. for 30 mins and the fluorescence was read at excitation wavelengths of 320-360 nm and emission wavelengths of 490-520 nm. Test compounds efficacy was determined by the percent inhibition of renin activity using Aliskiren (Tekturna) as a reference standard.
Following table represents measured IC50 values of the selected compounds for its inhibition of human recombinant renin.

The structures appear in SMILES notation. Where a name gives a salt, the structure may show the parent alone. Bounds are passed on as bounds.

The term IC50 denotes the concentration needed to halve the response being measured. As usually defined, the inhibition is the relative decrease from the control value, in per cent.

Turning to `Cc1cc(Cl)c(OCCOc2ccc(C(=O)NC3CCNCC3C(=O)N(Cc3ccc(Cl)cc3Cl)C3CC3)cc2)c(Cl)c1` (mixture of isomers) [Example 5, N-Cyclopropyl-4-(4-(2-(2,6-dichloro-4-methylphenoxy)ethoxy)benzamido)-N-(2,4-dichlorobenzyl)piperidine-3-carboxamide], the IC50 came out at 39 nM, the inhibition at 0.01 µM is 42% and the inhibition at 0.1 µM was 81%.
Regarding `COCCCOc1cccc(CN(C(=O)C2CNCCC2NC(=O)c2ccc(OCCOc3c(Cl)cccc3Cl)cc2)C2CC2)c1` (stereo not drawn) [Example 3, N-Cyclopropyl-4-(4-(2-(2,6-dichlorophenoxy)ethoxy)benzamido)-N-(3-(3-methoxypropoxy)benzyl)piperidine-3-carboxamide], the inhibition at 0.01 µM is below 10% and the inhibition at 0.1 µM was determined as 43%.
Consider `Cc1cc(C)cc(CN(C(=O)C2CNCCC2NC(=O)c2ccc(OCCOc3c(Cl)cccc3Cl)cc2)C2CC2)c1` (stereo not drawn) [Example 4, N-Cyclopropyl-4-(4-(2-(2,6-dichlorophenoxy)ethoxy)benzamido)-N-(3,5-dimethylbenzyl)piperidine-3-carboxamide], for which the inhibition at 0.01 µM is below 10% and the inhibition at 0.1 µM was found to be 47%.
As for `O=C(NC1CCNCC1C(=O)N(Cc1ccc(Cl)cc1Cl)C1CC1)c1ccc(OCCOc2c(Cl)cccc2Cl)cc1` (stereo not drawn) [Example 6, N-Cyclopropyl-N-(2,4-dichlorobenzyl)-4-(4-(2-(2,6-dichlorophenoxy)ethoxy)benzamido) piperidine-3-carboxamide], the “Renin inhibition (percent inhibition of renin activity) at 0.01 μM” value was “* (Inactive at tested concentration)” and the “Renin inhibition (percent inhibition of renin activity) at 0.1 μM” value worked out at 40%.
Regarding `COc1ccc(CN(C(=O)C2CNCCC2NC(=O)c2ccc(OCCOc3c(Cl)cc(C)cc3Cl)cc2)C2CC2)cc1OC` (stereo not drawn) [Example 8, N-Cyclopropyl-4-(4-(2-(2,6-dichloro-4-methylphenoxy)ethoxy)benzamido)-N-(3,4-dimethoxybenzyl)piperidine-3-carboxamide], the inhibition at 0.01 µM is below 10% and the inhibition at 0.1 µM was 41%.
Consider `Cc1cc(C)cc(CN(C(=O)C2CNCCC2NC(=O)c2ccc(OCCOc3c(Cl)cc(C)cc3Cl)cc2)C2CC2)c1` (stereo not drawn) [Example 10, N-Cyclopropyl-4-(4-(2-(2,6-dichloro-4-methylphenoxy)ethoxy)benzamido)-N-(3,5-dimethylbenzyl)piperidine-3-carboxamide], for which the inhibition at 0.01 µM is below 10% and the inhibition at 0.1 µM is 44%.
Regarding `Cc1cc(Cl)c(OCCOc2ccc(C(=O)NC3CCNCC3C(=O)N(Cc3ccc4ccccc4c3)C3CC3)cc2)c(Cl)c1` (stereo not drawn) [Example 12, N-Cyclopropyl-4-(4-(2-(2,6-dichloro-4-methylphenoxy)ethoxy)benzamido)-N-(naphthalen-2-ylmethyl)piperidine-3-carboxamide], the concentration for half-maximal inhibition (IC50) was 64 nM, the inhibition at 0.01 µM came out at 43% and the inhibition at 0.1 µM was 89%.
Regarding `COc1cccc(CN(C(=O)C2CNCC[C@@H]2NC(=O)c2ccc(OCCOc3c(Cl)cc(C)cc3Cl)cc2)C2CC2)c1OC.Cl` (stereo partly drawn) [Example 14, (4S)—N-cyclopropyl-4-(4-(2-(2,6-dichloro-4-methylphenoxy)ethoxy)benzamido)-N-(2,3-dimethoxybenzyl)piperidine-3-carboxamide hydrochloride], the inhibition at 0.01 µM came out at 19%. Moreover, under “hydrochloride, 0.1 µM”, the “Renin inhibition (percent inhibition of renin activity) at 0.1 μM” value came to 66%.
Turning to `COc1cccc(CN(C(=O)C2CNCC[C@@H]2NC(=O)c2ccc(OCCOc3c(Cl)cc(C)cc3Cl)cc2)C2CC2)c1OC.Cl` (stereo partly drawn) [Example 15, (4S)—N-cyclopropyl-4-(4-(2-(2,6-dichloro-4-methylphenoxy)ethoxy)benzamido)-N-(2,3-dimethoxybenzyl)piperidine-3-carboxamide hydrochloride], under “hydrochloride, 0.01 µM”, the “Renin inhibition (percent inhibition of renin activity) at 0.01 μM” value was 13%. For the setting “hydrochloride, 0.1 µM”, the “Renin inhibition (percent inhibition of renin activity) at 0.1 μM” value is given as 12%.
Consider `COc1ccccc1COCCOc1ccc(C(=O)N[C@H]2CCNCC2C(=O)N(Cc2cccc(C)c2C)C2CC2)cc1` (stereo partly drawn) [Example 16, (4S)—N-Cyclopropyl-N-(2,3-dimethylbenzyl)-4-(4-(2-((2-methoxybenzyl)oxy)ethoxy)benzamido)piperidine-3-carboxamide], for which the inhibition at 0.01 µM is 11% and the inhibition at 0.1 µM stood at 52%.
As for `Cc1cc(Cl)c(OCCOc2ccc(C(=O)N[C@H]3CCNCC3C(=O)N(Cc3ccc(C)c(C)c3)C3CC3)cc2)c(Cl)c1.Cl` (stereo partly drawn) [Example 18], the “Renin inhibition (percent inhibition of renin activity) at 0.01 μM” value is 20% and the “Renin inhibition (percent inhibition of renin activity) at 0.1 μM” value came out at 56%.
Regarding `Cc1cc(Cl)c(OCCOc2ccc(C(=O)N[C@H]3CCNCC3C(=O)N(Cc3cccc(C)c3C)C3CC3)cc2)c(Cl)c1` (stereo partly drawn) [Example 20, (4S)—N-Cyclopropyl-4-(4-(2-(2,6-dichloro-4-methylphenoxy)ethoxy)benzamido)-N-(2,3-dimethylbenzyl)piperidine-3-carboxamide hydrochloride], the IC50 came to 13 nM, the inhibition at 0.01 µM was found to be 48% and the inhibition at 0.1 µM was found to be 91%.
Take `Cc1cc(Cl)c(OCCOc2ccc(C(=O)N[C@@H]3CCNCC3C(=O)N(Cc3ccc(C)c(C)c3)C3CC3)cc2)c(Cl)c1` (stereo partly drawn) [Example 22, (4R)—N-Cyclopropyl-4-(4-(2-(2,6-dichloro-4-methylphenoxy)ethoxy)benzamido)-N-(3,4-dimethylbenzyl)piperidine-3-carboxamide hydrochloride]: the inhibition at 0.01 µM is below 10% and the inhibition at 0.1 µM worked out at 40%.
In the same order, the values of `Cc1cc(Cl)c(OCCOc2ccc(C(=O)N[C@@H]3CCNCC3C(=O)N(Cc3cccc(C)c3C)C3CC3)cc2)c(Cl)c1` (stereo partly drawn) [Example 24, (4R)—N-Cyclopropyl-4-(4-(2-(2,6-dichloro-4-methylphenoxy)ethoxy)benzamido)-N-(2,3-dimethylbenzyl)piperidine-3-carboxamide hydrochloride] are 10% and 83%.
Turning to `COc1ccccc1COCCCOc1ccc(C(=O)N[C@H]2CCNCC2C(=O)N(Cc2cccc(C)c2C)C2CC2)cc1.Cl` (stereo partly drawn) [Example 27], the “Renin inhibition (percent inhibition of renin activity) at 0.01 μM” value (hydrochloride) was “* (Inactive at tested concentration)”. The “Renin inhibition (percent inhibition of renin activity) at 0.1 μM” value (hydrochloride, 0.1 µM) is 38%.
As for `COc1ccccc1COCCCOc1ccc(C(=O)N[C@H]2CCNCC2C(=O)N(Cc2cccc(C)c2C)C2CC2)cc1` (stereo partly drawn) [Example 28, (4S)—N-Cyclopropyl-N-(2,3-dimethylbenzyl)-4-(4-(3-((2-methoxybenzyl)oxy)propoxy)benzamido)piperidine-3-carboxamide hydrochloride], the inhibition at 0.01 µM amounted to 60% and the inhibition at 0.1 µM came to 93%.
On to `Cc1cc(Cl)c(OCCOc2ccc(C(=O)N[C@H]3CCNCC3C(=O)N(Cc3ccccc3F)C3CC3)cc2)c(Cl)c1` (stereo partly drawn) [Example 29, (4S)—N-Cyclopropyl-4-(4-(2-(2,6-dichloro-4-methylphenoxy)ethoxy)benzamido)-N-(2-fluorobenzyl)piperidine-3-carboxamide hydrochloride], for which the inhibition at 0.01 µM was 11% and the inhibition at 0.1 µM came out at 65%.
On to `Cc1cc(Cl)c(OCCOc2ccc(C(=O)N[C@H]3CCNCC3C(=O)N(Cc3ccccc3Cl)C3CC3)cc2)c(Cl)c1` (stereo partly drawn) [Example 30, (4S)—N-(2-Chlorobenzyl)-N-cyclopropyl-4-(4-(2-(2,6-dichloro-4-methylphenoxy)ethoxy)benzamido)piperidine-3-carboxamide hydrochloride], for which the inhibition at 0.01 µM is below 10% and the inhibition at 0.1 µM turned out to be 87%.
